From US4236010A, “Phenyl-quinolizidines” (Hoffmann-La Roche Inc., priority 1978, dated 1980)
Counter-ions that a name gives are not always drawn.

How the values were obtained:
[1] = target: T1, calf striatum (specific binding of [^3 H] spiroperidol on the receptor) (Bos taurus, UniProt P20288); experiment: Spiroperidol-binding test (in vitro); conditions: 50% detachment of specific [^3 H] spiroperidol binding
T1 construct: calf striatum was used as the receptor; from tissue; host or cells: calf striatum
T1 sequence (P20288 whole entry): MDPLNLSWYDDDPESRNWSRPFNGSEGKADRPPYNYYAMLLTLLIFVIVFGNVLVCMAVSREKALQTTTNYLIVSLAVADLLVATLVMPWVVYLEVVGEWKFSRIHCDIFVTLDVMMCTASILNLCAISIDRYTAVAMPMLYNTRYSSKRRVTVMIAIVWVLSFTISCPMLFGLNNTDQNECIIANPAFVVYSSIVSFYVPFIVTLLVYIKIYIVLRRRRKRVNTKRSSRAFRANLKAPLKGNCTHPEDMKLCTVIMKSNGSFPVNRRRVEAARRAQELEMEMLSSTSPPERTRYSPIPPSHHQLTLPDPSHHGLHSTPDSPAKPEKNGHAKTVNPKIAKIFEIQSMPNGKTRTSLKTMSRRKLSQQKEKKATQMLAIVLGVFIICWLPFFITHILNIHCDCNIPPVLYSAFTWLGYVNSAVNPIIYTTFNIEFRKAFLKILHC
Method: Spiroperidol-binding test (in vitro)
In this in vitro test calf striatum was used as the receptor [Creese et al., Life Sci. 17, 993 (1975)] and incubated with [^3 H] spiroperidol in analogy to the method described by Fields et al., Brain Research 136, 578 (1977).

[2] = "Pole Climbing" test (rat); format: in vivo; conditions: ip, 6 h; for ED50: Rattus norvegicus, read-out: Pole-Climbing BCR (Block of Conditioned Reflex) ED50 i.p.; for ED10: rat, i.p., inhibition of the unconditioned reaction, ED 10, read-out: Pole-Climbing BUR (Block of Unconditioned Reflex) ED10 i.p.
From the text: "Pole Climbing" test (rat)
In this test, there was used, for each dosage, a group of 10 rats which had been trained to escape an electric shock, unconditioned stimulus, produced via the lattice floor immediately after an acoustic signal, conditioned stimulus, by jumping up a vertical isolated pole in the experimental cage.

Hot-plate test (mouse) = format: in vivo; conditions: po, 1 h, mice, p.o., 60 minutes after administration, plate 60°±0.5° C
Method: Eight mice (20-22 g) were used per dosage. Sixty minutes after oral administration of the test substance, the mice were placed on a heated metal plate of 60°±0.5° C. Untreated mice begin to lick their paws within a maximum of 10 seconds.

Writhing test (mouse) = format: in vivo; conditions: po, 1 h, male mice, p.o., 60 minutes after administration
Method: Eight male mice (20-22 g.) per dosage, were used for this test. Sixty minutes after oral administration of the test substance, the mice were injected intraperitoneally with 10 ml/kg of the test solution. Following a latent period of 5 minutes, the number of animals in which no more than one characteristic writhing symptom (convulsive stretching movement of the body) occurred over five minutes was registered.

SMILES | IC50 [1] [nM] | ED50 [2] [mg/kg] | ED10 [2] [mg/kg] | ED50 (Hot-plate test (mouse)) [mg/kg] | ED50 (Writhing test (mouse)) [mg/kg]
Cc1cc2[nH]c(=O)n([C@@H]3CCN4C[C@@H](c5ccccc5Cl)CC[C@@H]4C3)c2cc1C (relative stereo) [rac-1-[(9aβH)-7β-(o-Chlorophenyl)octahydro-2H-quinolizin-2α-yl]-5,6-dimethyl-2-benzimidazolinone HCl] | 5 | 1.75 | 4.55 | – | –
O=c1[nH]c2cc(C(F)(F)F)ccc2n1[C@@H]1CCN2C[C@@H](c3ccccc3Cl)CC[C@@H]2C1 (relative stereo) [rac-1-[(9aβH)-7β-(o-Chlorophenyl)octahydro-2H-quinolizin-2α-yl]-5-trifluoromethyl-2-benzimidazolinone HCl] | 10 | 0.21 | 0.41 | – | –
O=c1[nH]c2cc(Cl)ccc2n1[C@@H]1CCN2C[C@@H](c3ccccc3F)CC[C@@H]2C1 (relative stereo) [rac-1-[(9aβH)-7β-(o-Fluorophenyl)octahyro-2H-quinolizin-2α-yl]-5-chloro-2-benzimidazolinone HCl] | – | 0.064 | 0.175 | – | –
CC(C)(C)[C@]1(O)CCN2C[C@@H](c3ccc(Cl)cc3Cl)CC[C@@H]2C1 (relative stereo) [rac-(9aβ H)-2α-tert.-Butyl-7β-(2,4-dichlorophenyl) octahydro-2H-quinolizin-2-ol HCl] | 79 | 6.4 | 5.4 | – | –
CCC(=O)O[C@@]1(c2ccccc2)CCN2C[C@@H](c3cccc(OC)c3)CC[C@@H]2C1 (relative stereo) [rac-(9aβH)-2α-Phenyl-7β-(m-methoxyphenyl)-octahydro-2H-quinolizin-2-yl propionate HCl] | – | – | – | 12 | 2.8
CCCC[C@]1(OC(C)=O)CCN2C[C@@H](c3ccccc3)CC[C@@H]2C1 (relative stereo) [rac-(9aβH)-2α-n-Butyl-7β-phenyl-octahydro-2H-quinozilin-2-yl acetate HCl] | – | – | – | 25 | 0.75
CC(C)(C)[C@]1(OC(=O)C(F)(F)F)CCN2C[C@@H](c3ccccc3)CC[C@@H]2C1 (relative stereo) [rac-(9aβH)-2α-tert.Butyl-7β-phenyl-octahydro-2H-quinolizin-2-yl trifluoroacetate HCl] | – | – | – | 86 | 8.7
CC(=O)O[C@]1(c2ccccc2)CCN2C[C@@H](c3ccccc3Cl)CC[C@@H]2C1 (relative stereo) [rac-(9aβH)-2β-Phenyl-7β-(o-chlorophenyl)-octahydro-2H-quinolizin-2-yl acetate HCl] | – | – | – | 284 | 116
CCCCC1(OC(C)=O)CCN2CC(c3ccccc3)CCC2C1.Cl (single isomer, unassigned; (+)) [(+)-2-Butyloctahydro-7-phenyl-2H-quinolizin-2-yl acetate HCl] | – | – | – | 2.6 | 0.19
CC(C)(C)[C@]1(O)CCN2C[C@@H](c3ccc(Cl)cc3Cl)CC[C@@H]2C1 [(-)-(2S,7R,9aR)-2-tert.-Butyl-7-(2,4-dichlorophenyl) octahydro-2H-quinolizin-2-ol HCl] | 41 | 4.7 | 3.8 | – | –
